# Source: the supplement of paper PMC10307832
# What was measured:
# Assay in all cases: relative viability (nuclei count vs DMSO), 5 days (fraction); higher = more cells survive
# Entinostat + Palbociclib = compound: Nc1ccccc1NC(=O)c1ccc(CNC(=O)OCc2cccnc2)cc1 [Entinostat] + CC(=O)c1c(C)c2cnc(Nc3ccc(N4CCNCC4)cn3)nc2n(C2CCCC2)c1=O [Palbociclib] (partner 0.5 µM)
# Method in brief: (§1)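 Lung cancer cell lines, seeded in 1536-well plates, were treated the following day by pin tool with a single drug or with five library-drug doses (not always all listed) in √10 steps on top of a fixed anchor-drug dose. Cells were fixed and nuclei stained in one step after 5 days, and nuclei were counted. Relative viability is the nuclei count for treated wells divided by that for vehicle wells, reported as medians of duplicate plates.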
# Entinostat + Pemetrexed = compound: Nc1ccccc1NC(=O)c1ccc(CNC(=O)OCc2cccnc2)cc1 [Entinostat] + Nc1nc2[nH]cc(CCc3ccc(C(=O)N[C@@H](CCC(=O)O)C(=O)O)cc3)c2c(=O)[nH]1 [Pemetrexed] (partner 0.2 µM)
# Method in brief: as §1
# SGI-1776 + Linsitinib = compound: CN1CCC(CNc2ccc3ncc(-c4cccc(OC(F)(F)F)c4)n3n2)CC1 [SGI-1776] + C[C@]1(O)C[C@@H](c2nc(-c3ccc4ccc(-c5ccccc5)nc4c3)c3c(N)nccn32)C1 [Linsitinib] (partner 1 µM)
# Method in brief: as §1
# SGI-1776 + Pictilisib = compound: CN1CCC(CNc2ccc3ncc(-c4cccc(OC(F)(F)F)c4)n3n2)CC1 [SGI-1776] + CS(=O)(=O)N1CCN(Cc2cc3nc(-c4cccc5[nH]ncc45)nc(N4CCOCC4)c3s2)CC1 [Pictilisib] (partner 1 µM)
# Method in brief: as §1
Cell Line,relative viability (Entinostat + Palbociclib; first compound 0.02 µM),relative viability (Entinostat + Palbociclib; first compound 0.06325 µM),relative viability (Entinostat + Palbociclib; first compound 0.2 µM),relative viability (Entinostat + Palbociclib; first compound 0.6325 µM),relative viability (Entinostat + Palbociclib; first compound 2 µM),relative viability (Entinostat + Pemetrexed; first compound 0.02 µM),relative viability (Entinostat + Pemetrexed; first compound 0.06325 µM),relative viability (Entinostat + Pemetrexed; first compound 0.2 µM),relative viability (Entinostat + Pemetrexed; first compound 0.6325 µM),relative viability (Entinostat + Pemetrexed; first compound 2 µM),relative viability (SGI-1776 + Linsitinib; first compound 0.08 µM),relative viability (SGI-1776 + Linsitinib; first compound 0.8 µM),relative viability (SGI-1776 + Linsitinib; first compound 2.53 µM),relative viability (SGI-1776 + Linsitinib; first compound 8 µM),relative viability (SGI-1776 + Pictilisib; first compound 0.08 µM),relative viability (SGI-1776 + Pictilisib; first compound 0.8 µM),relative viability (SGI-1776 + Pictilisib; first compound 2.53 µM),relative viability (SGI-1776 + Pictilisib; first compound 8 µM)
NCI-H2085,0.438,0.441,0.43,0.4,0.421,0.826,0.918,0.869,0.712,0.532,0.994,0.957,0.902,0.757,0.533,0.505,0.53,0.356
NCI-H1792,0.709,0.745,0.723,0.626,0.523,0.844,0.765,0.896,0.374,0.191,0.479,0.543,0.503,0.647,0.282,0.264,0.284,0.231
NCI-H2347,0.48,0.387,0.361,0.339,0.261,0.442,0.447,0.339,0.369,0.341,0.995,0.992,0.966,0.865,0.614,0.941,0.734,0.614
201T,0.384,0.376,0.426,0.378,0.373,0.37,0.33,0.379,0.287,0.279,1.05,1.01,0.968,0.87,0.7,0.718,0.687,0.6
NCI-H1755,0.439,0.454,0.446,0.407,0.342,0.422,0.437,0.407,0.358,0.374,0.988,0.969,0.996,0.896,0.386,0.442,0.367,0.299
NCI-H1651,0.549,0.535,0.617,0.533,0.45,0.715,0.777,0.655,0.639,0.435,1.01,0.925,0.938,0.566,0.671,0.559,0.421,0.432
NCI-H1437,0.236,0.182,0.204,0.178,0.122,0.318,0.282,0.231,0.178,0.148,1.03,1.03,0.952,0.452,0.435,0.517,0.367,0.219
NCI-H1975,0.488,0.378,0.346,0.181,0.132,0.283,0.306,0.27,0.219,0.185,0.946,0.906,0.909,0.803,0.382,0.311,0.246,0.203
BEN,0.543,0.466,0.457,0.454,0.4,0.88,1.02,0.891,0.564,0.413,0.931,0.789,0.796,0.646,0.736,0.643,0.504,0.396
NCI-H322M,0.499,0.533,0.495,0.546,0.516,0.66,0.692,0.716,0.599,0.583,1.01,1.04,0.933,0.774,0.571,0.483,0.473,0.445
SK-MES-1,0.31,0.395,0.394,0.43,0.422,0.929,1.01,1.04,0.944,0.577,1.09,1.09,1.14,1.03,0.364,0.353,0.33,0.278
HOP-62,0.409,0.44,0.45,0.195,0.162,0.23,0.301,0.286,0.229,0.188,0.823,0.877,1.23,1.04,0.849,0.734,1.08,0.607
HCC-366,0.344,0.348,0.133,0.111,0.0439,0.185,0.141,0.159,0.0978,0.0735,0.731,0.697,0.633,0.413,0.158,0.192,0.137,0.0802
NCI-H2405,0.515,0.531,0.571,0.532,0.453,1.06,1.22,1.02,0.978,0.667,0.899,0.873,0.854,0.588,0.478,0.507,0.309,0.257
NCI-H1355,0.416,0.417,0.332,0.328,0.25,0.99,0.945,0.874,0.749,0.614,0.92,0.899,0.792,0.729,0.488,0.494,0.439,0.364
NCI-H1793,0.329,0.321,0.263,0.248,0.189,0.984,1.08,1.08,0.572,0.316,1.06,0.895,1,0.794,0.301,0.256,0.399,0.314
NCI-H1734,0.385,0.375,0.402,0.347,0.256,0.436,0.419,0.492,0.414,0.382,0.919,0.895,0.935,0.749,0.468,0.472,0.396,0.332
LXF-289,0.577,0.606,0.575,0.509,0.514,0.878,0.878,0.869,0.719,0.665,0.992,0.98,1.01,0.97,0.699,0.837,0.806,0.67

Cell Line,relative viability (Entinostat + Palbociclib; first compound 0.02 µM),relative viability (Entinostat + Palbociclib; first compound 0.06325 µM),relative viability (Entinostat + Palbociclib; first compound 0.2 µM),relative viability (Entinostat + Palbociclib; first compound 0.6325 µM),relative viability (Entinostat + Palbociclib; first compound 2 µM),relative viability (Entinostat + Pemetrexed; first compound 0.02 µM),relative viability (Entinostat + Pemetrexed; first compound 0.06325 µM),relative viability (Entinostat + Pemetrexed; first compound 0.2 µM),relative viability (Entinostat + Pemetrexed; first compound 0.6325 µM),relative viability (Entinostat + Pemetrexed; first compound 2 µM),relative viability (SGI-1776 + Linsitinib; first compound 0.08 µM),relative viability (SGI-1776 + Linsitinib; first compound 0.8 µM),relative viability (SGI-1776 + Linsitinib; first compound 2.53 µM),relative viability (SGI-1776 + Linsitinib; first compound 8 µM),relative viability (SGI-1776 + Pictilisib; first compound 0.08 µM),relative viability (SGI-1776 + Pictilisib; first compound 0.8 µM),relative viability (SGI-1776 + Pictilisib; first compound 2.53 µM),relative viability (SGI-1776 + Pictilisib; first compound 8 µM)
PC-3 [JPC-3],0.529,0.47,0.486,0.442,0.378,1.36,1.05,0.924,0.686,0.461,0.999,0.974,1.02,0.917,0.72,0.779,0.768,0.478
NCI-H2087,0.252,0.209,0.174,0.0887,0.0971,0.68,0.581,0.67,0.613,0.304,0.913,0.863,1.09,1.12,0.953,0.974,0.826,0.899
HCC-78,0.523,0.462,0.491,0.468,0.531,0.922,0.873,0.946,0.871,0.908,0.582,0.432,0.449,0.403,0.27,0.231,0.199,0.164
NCI-H1395,0.602,0.773,0.802,0.603,0.523,0.884,1.05,0.911,0.76,0.719,1.19,1.08,0.938,0.746,0.591,0.64,0.542,0.494
NCI-H2228,0.617,0.747,0.691,0.35,0.244,0.316,0.399,0.323,0.271,0.172,0.881,0.541,0.557,0.276,0.446,0.38,0.286,0.177
H3255,0.339,0.345,0.348,0.301,0.27,0.586,0.57,0.549,0.414,0.378,1.1,1.04,0.921,0.792,0.479,0.451,0.456,0.392
HCC-15,0.734,0.674,0.572,0.454,0.273,0.237,0.215,0.237,0.197,0.159,0.866,0.942,0.87,0.657,0.657,0.839,0.665,0.468
NCI-H2023,0.319,0.312,0.258,0.151,0.0658,0.199,0.192,0.152,0.127,0.0994,0.727,0.77,0.666,0.444,0.23,0.23,0.202,0.147
HCC-44,1.01,0.833,0.903,0.84,0.826,0.63,0.604,0.631,0.562,0.564,0.73,0.709,0.644,0.641,0.662,0.589,0.653,0.42
COR-L23,0.31,0.249,0.253,0.139,0.0938,0.21,0.184,0.197,0.179,0.167,0.886,0.965,0.864,0.668,0.916,0.868,0.821,0.667
EMC-BAC-2,0.532,0.468,0.443,0.388,0.294,0.434,0.432,0.416,0.361,0.341,0.868,0.846,0.838,0.737,0.539,0.555,0.567,0.485
LCLC-97TM1,0.21,0.213,0.236,0.277,0.18,0.149,0.169,0.148,0.196,0.168,0.193,0.154,0.187,0.16,0.25,0.296,0.196,0.179
LK-2,0.77,0.673,0.651,0.496,0.211,0.365,0.278,0.282,0.276,0.132,0.697,0.773,0.523,0.418,0.504,0.563,0.47,0.308
NCI-H3122,0.191,0.217,0.208,0.181,0.187,0.186,0.208,0.2,0.171,0.185,1.04,0.983,1.16,1.08,0.594,0.717,0.632,0.515
NCI-H2126,0.316,0.317,0.351,0.321,0.334,0.71,0.687,0.674,0.405,0.306,0.731,0.731,0.684,0.695,0.499,0.534,0.501,0.468
NCI-H520,0.195,0.237,0.32,0.355,0.236,0.644,0.712,0.875,0.689,0.418,1.17,1.02,1.05,0.848,0.319,0.323,0.225,0.204
LU99A,0.419,0.416,0.376,0.388,0.302,0.188,0.181,0.184,0.175,0.179,0.573,0.54,0.545,0.432,0.29,0.339,0.309,0.28
